Measured values as given in PubChem BioAssay AID1963830 (Molecular Pharmacology Branch, DTP, NCI, 2024).

Tested on: 922993-354-T-J3-PDC complex spheroid viability
Assay: Anticancer human tumor 922993-354-T-J3-PDC patient-derived endometrial carcinoma cell line growth inhibition [POLQ]
Conditions: for IC50: curve of first compound; for viability, T/C: stronger effect = lower value
Outline: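 Three-cell-type spheroids modelling solid tumor plus stroma served as the readout system; POL inhibitors were tested individually and in combination, concentration ranges set by clinical Cmax where known.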

[1] = second compound 0.0316 µM, first compound 0.0316 µM
[2] = second compound 0.0316 µM, first compound 0.1 µM
[3] = second compound 0.0316 µM, first compound 0.316 µM
[4] = second compound 0.0316 µM, first compound 1 µM
[5] = second compound 0.0316 µM, first compound 3.16 µM
[6] = second compound 0.0316 µM, first compound 10 µM
[7] = second compound 0.1 µM, first compound 0.0316 µM
[8] = second compound 0.1 µM, first compound 0.1 µM
[9] = second compound 0.1 µM, first compound 0.316 µM
[10] = second compound 0.1 µM, first compound 1 µM
[11] = second compound 0.1 µM, first compound 3.16 µM
[12] = second compound 0.1 µM, first compound 10 µM
[13] = second compound 0.316 µM, first compound 0.0316 µM
[14] = second compound 0.316 µM, first compound 0.1 µM
[15] = second compound 0.316 µM, first compound 0.316 µM
[16] = second compound 0.316 µM, first compound 1 µM
[17] = second compound 0.316 µM, first compound 3.16 µM
[18] = second compound 0.316 µM, first compound 10 µM
[19] = second compound 1 µM, first compound 0.0316 µM
[20] = second compound 1 µM, first compound 0.1 µM
[21] = second compound 1 µM, first compound 0.316 µM
[22] = second compound 1 µM, first compound 1 µM
[23] = second compound 1 µM, first compound 3.16 µM
[24] = second compound 1 µM, first compound 10 µM
[25] = second compound 3.16 µM, first compound 0.0316 µM
[26] = second compound 3.16 µM, first compound 0.1 µM
[27] = second compound 3.16 µM, first compound 0.316 µM
[28] = second compound 3.16 µM, first compound 1 µM
[29] = second compound 3.16 µM, first compound 3.16 µM
[30] = second compound 3.16 µM, first compound 10 µM
[31] = second compound 10 µM, first compound 0.0316 µM
[32] = second compound 10 µM, first compound 0.1 µM
[33] = second compound 10 µM, first compound 0.316 µM
[34] = second compound 10 µM, first compound 1 µM
[35] = second compound 10 µM, first compound 3.16 µM
[36] = second compound 10 µM, first compound 10 µM
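Also: spheroids exposed to the agents for one week.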
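For viability, T/C in this document: 100% = DMSO vehicle control wells.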

With `C#Cc1c(F)ccc2cc(O)cc(-c3ncc4c(N5CC6CCC(C5)N6)nc(OCC56CCCN5CC(F)C6)nc4c3F)c12` (stereo unspecified) + Nc1ccc(C#CCN(C(=O)Cc2ncc(C(F)(F)F)cc2C(F)(F)F)c2ccc(F)cc2)nn1 the IC50 (second compound 0.0316 µM) was > 10 µM, the IC50 (second compound 0.1 µM) was > 10 µM and the IC50 (second compound 0.316 µM) was > 10 µM. For the same compound, the IC50 (second compound 1 µM) was > 10 µM, the IC50 (second compound 3.16 µM) was > 10 µM and the IC50 (second compound 10 µM) was > 10 µM. For the same compound, the viability, T/C [1] was 109%, the viability, T/C [2] was 106% and the viability, T/C [3] was 104%. The viability, T/C [4] was 102%, the viability, T/C [5] was 104% and the viability, T/C [6] was 102%. For the same compound, the viability, T/C [7] was 105%, the viability, T/C [8] was 101% and the viability, T/C [9] was 104%. It also gave a viability, T/C [10] of 101%, a viability, T/C [11] of 101% and a viability, T/C [12] of 102%. For the same compound, the viability, T/C [13] was 109%, the viability, T/C [14] was 108% and the viability, T/C [15] was 106%. It also gave a viability, T/C [16] of 103%, a viability, T/C [17] of 104% and a viability, T/C [18] of 102%. The viability, T/C [19] was 105%, the viability, T/C [20] was 107% and the viability, T/C [21] was 105%. It also gave a viability, T/C [22] of 106%, a viability, T/C [23] of 107% and a viability, T/C [24] of 98.2%. It also gave a viability, T/C [25] of 103%, a viability, T/C [26] of 106% and a viability, T/C [27] of 104%. The viability, T/C [28] was 104%, the viability, T/C [29] was 102% and the viability, T/C [30] was 100%. For the same compound, the viability, T/C [31] was 94.3%, the viability, T/C [32] was 99.9% and the viability, T/C [33] was 100%. For the same compound, the viability, T/C [34] was 99.1%, the viability, T/C [35] was 96.9% and the viability, T/C [36] was 92.5%.
`CC1COCCN1c1cc(C2(O)CC3CCC(C2)O3)c2cnn(-c3ccn[nH]3)c2n1` (stereo unspecified) + Nc1ccc(C#CCN(C(=O)Cc2ncc(C(F)(F)F)cc2C(F)(F)F)c2ccc(F)cc2)nn1 was tested, and the IC50 (second compound 0.0316 µM) was 2.08 µM, the IC50 (second compound 0.1 µM) was 2.16 µM and the IC50 (second compound 0.316 µM) was 2.27 µM. It also gave an IC50 (second compound 1 µM) of 2.37 µM, an IC50 (second compound 3.16 µM) of 1.31 µM and an IC50 (second compound 10 µM) of 0.453 µM. It also gave a viability, T/C [1] of 102%, a viability, T/C [2] of 105% and a viability, T/C [3] of 89.1%. For the same compound, the viability, T/C [4] was 74.9%, the viability, T/C [5] was 35.3% and the viability, T/C [6] was 21.3%. The viability, T/C [7] was 108%, the viability, T/C [8] was 107% and the viability, T/C [9] was 98.7%. The viability, T/C [10] was 76.7%, the viability, T/C [11] was 36.8% and the viability, T/C [12] was 16.2%. For the same compound, the viability, T/C [13] was 106%, the viability, T/C [14] was 102% and the viability, T/C [15] was 92.9%. The viability, T/C [16] was 75.8%, the viability, T/C [17] was 38.9% and the viability, T/C [18] was 20.7%. It also gave a viability, T/C [19] of 105%, a viability, T/C [20] of 94.3% and a viability, T/C [21] of 89.2%. It also gave a viability, T/C [22] of 74.7%, a viability, T/C [23] of 40.9% and a viability, T/C [24] of 14.9%. The viability, T/C [25] was 97.8%, the viability, T/C [26] was 101% and the viability, T/C [27] was 80.4%. The viability, T/C [28] was 59.3%, the viability, T/C [29] was 26% and the viability, T/C [30] was 12.2%. It also gave a viability, T/C [31] of 99.4%, a viability, T/C [32] of 90.9% and a viability, T/C [33] of 62.4%. For the same compound, the viability, T/C [34] was 22.9%, the viability, T/C [35] was 19.4% and the viability, T/C [36] was 10.9%.
`O=C(Nc1ccc(O)c(NS(=O)(=O)c2ccc(F)cc2)c1)c1ccc(-c2ccccc2)cc1` + Nc1ccc(C#CCN(C(=O)Cc2ncc(C(F)(F)F)cc2C(F)(F)F)c2ccc(F)cc2)nn1 was tested, and the IC50 (second compound 0.0316 µM) was > 10 µM, the IC50 (second compound 0.1 µM) was > 10 µM and the IC50 (second compound 0.316 µM) was > 10 µM. For the same compound, the IC50 (second compound 1 µM) was > 10 µM, the IC50 (second compound 3.16 µM) was > 10 µM and the IC50 (second compound 10 µM) was > 10 µM. It also gave a viability, T/C [1] of 99.8%, a viability, T/C [2] of 107% and a viability, T/C [3] of 99.4%. The viability, T/C [4] was 102%, the viability, T/C [5] was 105% and the viability, T/C [6] was 96.2%. For the same compound, the viability, T/C [7] was 101%, the viability, T/C [8] was 97.6% and the viability, T/C [9] was 99.4%. For the same compound, the viability, T/C [10] was 97.6%, the viability, T/C [11] was 99.1% and the viability, T/C [12] was 102%. For the same compound, the viability, T/C [13] was 100%, the viability, T/C [14] was 100% and the viability, T/C [15] was 99.1%. It also gave a viability, T/C [16] of 95.1%, a viability, T/C [17] of 103% and a viability, T/C [18] of 105%. The viability, T/C [19] was 102%, the viability, T/C [20] was 94.8% and the viability, T/C [21] was 104%. For the same compound, the viability, T/C [22] was 93%, the viability, T/C [23] was 105% and the viability, T/C [24] was 99%. It also gave a viability, T/C [25] of 101%, a viability, T/C [26] of 97.7% and a viability, T/C [27] of 100%. The viability, T/C [28] was 97.4%, the viability, T/C [29] was 105% and the viability, T/C [30] was 103%. It also gave a viability, T/C [31] of 97.6%, a viability, T/C [32] of 99.7% and a viability, T/C [33] of 95%. The viability, T/C [34] was 99.1%, the viability, T/C [35] was 103% and the viability, T/C [36] was 102%.
